Experimental data as given in patent EP0434038A1, “Fused imidazole derivatives, their production and use” (Takeda Chemical Industries, Ltd., priority 1989, dated 1991).

Legend:
[1] = biological target: T1, A-II-receptor (Bos taurus, UniProt P25104); experiment: displacement of 125I-angiotensin II from bovine adrenal cortex membranes; type: binding, membrane fraction; settings: for inhibition at 1 µM: read-out: Radioreceptor Assay (%) / 1X10⁻⁶M; for inhibition at 0.1 µM: read-out: Radioreceptor Assay (%) / 1X10⁻⁷M
T1 construct: An A-II-receptor was prepared from the membrane fraction of bovine adrenal cortex
T1 sequence (P25104 1-359): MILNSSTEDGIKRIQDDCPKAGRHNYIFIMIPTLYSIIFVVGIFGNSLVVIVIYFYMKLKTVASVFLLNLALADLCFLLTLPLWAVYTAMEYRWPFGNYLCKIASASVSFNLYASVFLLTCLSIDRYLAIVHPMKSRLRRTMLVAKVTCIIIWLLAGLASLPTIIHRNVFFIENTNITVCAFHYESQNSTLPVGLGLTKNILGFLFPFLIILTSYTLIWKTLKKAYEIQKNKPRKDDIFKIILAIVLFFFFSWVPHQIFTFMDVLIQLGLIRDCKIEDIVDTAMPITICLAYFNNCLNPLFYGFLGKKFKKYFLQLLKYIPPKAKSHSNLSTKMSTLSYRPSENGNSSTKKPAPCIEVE
Experimental: Inhibition of binding of angiotensin-II to angiotensin receptor
An experiment of inhibition on the binding of angiotensin-II (A-II) to A-II-receptor was conducted by modifying the method of Douglas et al. [Endocrinology, 102, 685-696 (1978)]. An A-II-receptor was prepared from the membrane fraction of bovine adrenal cortex.
The compound of the present invention (10⁻⁷M or 10⁻⁶M ) and ¹²⁵I-A-II (1.85 kBq/50 µl) were added to the receptor membrane fraction, and the mixture was incubated at room temperature for one hour. The receptor-bound and free ¹²⁵I-A-II were separated through a filter (Whatman GF/B filter), and the radioactivity of ¹²⁵I-A-II bound to the receptor was measured.

[2] = test system: Jcl : SD rats; experiment: inhibition of the pressor response to angiotensin II in rats, oral; type: in vivo; settings: Rattus norvegicus, p.o.
Excerpt: Inhibitory effect of the compound of the present invention on pressor action of A-II
Jcl : SD rats (9 week old, male) were used. On the day previous to the experiment, these animals were applied with cannulation into the femoral artery and vein under anesthesia with pentobarbital Na. The animals were fasted but allowed to access freely to drinking water until the experiment was started. Just on the day of conducting the experiment, the artery cannula was connected with a blood-pressure transducer, and the average blood pressure was recorded by means of polygraph. Before administration of the drug, the pressor action due to intravenous administration of A-II (100 ng/kg) as the control was measured. The drugs were orally administered, and then, at each point of the measurement, A-II was administered intravenously, and the pressor action was similarly measured. By comparing the pressor action before and after administration of the drug, the percent inhibition by the drug on A-II-induced pressor action was evaluated.

Row | inhibition at 1 µM [1] [%] | inhibition at 0.1 µM [1] [%] | SMILES | inhibition at 10 mg/kg ([2]; 10 mg/kg) [%] | inhibition at 30 mg/kg [2] [%]
1 | 92 | 63 | CCCCc1nc2cccnc2n1Cc1ccc(-c2ccccc2-c2nnn[nH]2)cc1 [compound 3, 2-Butyl-3-[2'-[(1H-tetrazol-5-yl)biphenyl-4-yl]methyl]imidazo[4,5-b]pyridine] | 50 to 70 | > 70
2 | 48 | 5 | CCCCc1nc2ncccc2n1Cc1ccc(-c2ccccc2-c2nnn[nH]2)cc1 [compound 4, 0.4 H2O] |  | 
3 | 81 | 43 | CCCCc1nc2nccnc2n1Cc1ccc(-c2ccccc2-c2nnn[nH]2)cc1 [compound 6, 2-Butyl-1-[[2'-(1H-tetrazol-5-yl)biphenyl-4-yl]methyl]imidazo[4,5-b]pyrazine, 0.4 H2O] |  | 
4 | 84 | 50 | CCc1nc2cccnc2n1Cc1ccc(-c2ccccc2-c2nnn[nH]2)cc1 [compound 9, 2-Ethyl-3-[[2'-(1H-tetrazol-5-yl)biphenyl-4-yl]methyl]imidazo[4,5-b]pyridine, 1/2 EtOAc] |  | > 70
5 | 44 | 1 | CCCCc1nc2cnccc2n1Cc1ccc(-c2ccccc2-c2nnn[nH]2)cc1 [compound 13, 2-Butyl-1-[[2'-(1H-tetrazol-5-yl)biphenyl]-methyl]imidazo[4,5-c]pyridine, 0.2 H2O] |  | 
6 | 56 | 9 | CCCCc1nc2ccncc2n1Cc1ccc(-c2ccccc2-c2nnn[nH]2)cc1 [compound 14, 2-Butyl-3-[[2'-(1H-tetrazol-5-yl)biphenyl]-methyl]imidazo[4,5-c]pyridine, 0.2 H2O] |  | 
7 | 75 | 32 | CCCCc1nc2cc(C)cnc2n1Cc1ccc(-c2ccccc2-c2nnn[nH]2)cc1 [compound 15, 2-Butyl-6-methyl-3-[[2'-(1H-tetrazol-5-yl)-biphenyl-4-yl]methyl]imidazo[5,4-b]pyridine, 0.3 H2O] |  | 
8 | 32 | 0 | CCCCc1nc2ncc(C)cc2n1Cc1ccc(-c2ccccc2-c2nnn[nH]2)cc1 [compound 16, 2-Butyl-6-methyl-1-[[2'-(1H-tetrazol-5-yl)-biphenyl-4-yl]methyl]imidazo[5,4-b]pyridine, 0.4 H2O] |  | 
9 | 75 | 32 | CCCc1nc2ccc(OC)nc2n1Cc1ccc(-c2ccccc2-c2nnn[nH]2)cc1 [compound 23, 5-Methoxy-2-propyl-3-[[2'-(1H-tetrazol-5-yl)-biphenyl-4-yl]methyl]imidazo[4,5-b]pyridine, 0.3 H2O] |  | 
10 | 9 | 0 | CCCCc1nc2cc(Br)c(C)nc2n1Cc1ccc(-c2ccccc2-c2nnn[nH]2)cc1 [compound 24, 6-Bromo-2-butyl-5-methyl-3-[[2'-(1H-tetrazol-5-yl)biphenyl-4-yl]methyl]imidazo[5,4-b]pyridine] |  | 
